In ChEMBL document CHEMBL1153703, “Cell-based optimization of novel benzamides as potential antimalarial leads” (Bioorg Med Chem Lett, 2009):

Key:
Mus musculus [1] = experiment: Dose normalised AUC (0 to 5 hrs) in BALB/c mouse at 20 mg/kg, po; type: ADME, organism-based; design: time < 4 hr, dose 20 mg/kg, route oral; conditions: in vivo, 4 h
Mus musculus [2] = experiment: AUC (0 to 5 hrs) in BALB/c mouse at 20 mg/kg; type: ADME, organism-based, Plasma; design: time < 4 hr, dose 20 mg/kg; conditions: in vivo, 4 h
[3] = Cytotoxicity against mouse BAF3 cells; type: cell-based; conditions: read-out: TC50 (the source's name)
[4] = Selectivity index, TC50 for mice (Mus musculus) BAF3 cells to EC50 for chloroquine-sensitive Plasmodium falciparum 3D7; type: toxicity, cell-based; conditions: read-out: Selectivity Index
[5] = Selectivity index, TC50 for human HeLa cells to EC50 for chloroquine-sensitive Plasmodium falciparum 3D7; type: toxicity, cell-based; conditions: read-out: Selectivity Index
[6] = Cytotoxicity against human Hep2 cells; type: cell-based, HEp-2; conditions: read-out: TC50 (the source's name)
[7] = Cytotoxicity against human HuH7 cells; type: cell-based, Huh-7; conditions: read-out: TC50 (the source's name)
[8] = Selectivity index, TC50 for human HuH7 cells to EC50 for chloroquine-sensitive Plasmodium falciparum 3D7; type: toxicity, cell-based, Huh-7; conditions: read-out: Selectivity Index
[9] = Selectivity index, TC50 for CHO cells to EC50 for chloroquine-sensitive Plasmodium falciparum 3D7; type: toxicity, cell-based; conditions: hamster, read-out: Selectivity Index
[10] = Cytotoxicity against human HeLa cells; type: cell-based; conditions: read-out: TC50 (the source's name)
[11] = Cytotoxicity against CHO cells; type: cell-based, Cricetulus griseus; conditions: chinese hamster, read-out: TC50 (the source's name)
[12] = Selectivity index, TC50 for human Hep2 cells to EC50 for chloroquine-sensitive Plasmodium falciparum 3D7; type: toxicity, cell-based, HEp-2; conditions: read-out: Selectivity Index
[13] = Cytotoxicity against human 293T cells; type: cell-based, HEK-293T; conditions: read-out: TC50 (the source's name)

| Compound | AUC (Mus musculus [1]) [µg·min/mL] | AUC (Mus musculus [2]) [µM·h] | further results |
| --- | --- | --- | --- |
| O=C(Nc1cccc(Cl)c1)c1cc(N2CCC(N3CCCCC3)CC2)cc(C(F)(F)F)c1 | 6.1 | 4.37 | – |
| O=C(Nc1cc(Cl)cc(Cl)c1)c1cc(N2CCC(N3CCCC3)CC2)cc(C(F)(F)F)c1 | 7.01 | 4.81 | – |
| O=C(Nc1cccc(Cl)c1)c1cc(N2CCC(N3CCCC3)CC2)cc(C(F)(F)F)c1 | 5.31 | 3.92 | – |
| O=C(Nc1cccc(C(F)(F)F)c1)c1cc(N2CCc3ccccc3C2)cc(C(F)(F)F)c1 | 2.33 | 1.67 | – |
| CC1CCN(C2CCN(c3cc(C(=O)Nc4cccc(Cl)c4)cc(C(F)(F)F)c3)CC2)CC1 | 11.42 | 7.93 | CC50 [3]: > 8 µM; selectivity ratio [4]: > 20; selectivity ratio [5]: > 20; CC50 [6]: > 8 µM; CC50 [7]: > 8 µM; selectivity ratio [8]: > 20; selectivity ratio [9]: > 20; CC50 [10]: > 8 µM; CC50 [11]: > 8 µM; selectivity ratio [12]: > 20; CC50 [13]: > 8 µM |
| O=C(Nc1cc(N2CCC(N3CCCC3)CC2)cc(C(F)(F)F)c1)c1cccc(C(F)(F)F)c1 | 6.94 | 4.77 | – |
